From patent US8158139B2 (priority 2004, dated 2012)

Assay: Flash point of solvents, closed cup method
Assay type: physicochemical
Source text: In one embodiment, the formulation contains a mixture of organic solvent and isopropyl alcohol.

| Structure (SMILES) | flash point |
| --- | --- |
| C=C(C)[C@H]1CC=C(C)CC1 [dipentene] | 46 °C |
| CCO [ethyl alcohol] | 14 °C |
| CC(C)O [isopropyl alcohol] | 11.7 °C |
| OCc1ccccc1 [benzyl alcohol] | 100.6 °C |
| CC(O)CO (centres unmarked) [propylene glycol] | 99 °C |
